In PubChem BioAssay AID504342 (Broad Institute, 2011) one finds caspase activation and AC10 data, which are given here for 21 compounds.

Calls of active or inactive are those of the source.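 The calls were made as follows: active = fitted curve reaches 10% of the positive control caspase activation at or below the top valid tested dose; inactive = signal shifts the opposite way, plus the rest.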

Test system in one test: not listed separately
Kind of test: inducers of caspase signal, alternate A1 construct – cell-based, MEF, plate reader, dry powder, set 2, orthogonal assay for A1 inhibitor project, dose response (AID 504342). Particulars: MEF Flag-A1-IRES-BIM, caspase-Glo luminescence, 3 h; at 35 µM (top of the series).
On to `O=c1oc2ccccc2c(Nc2cc(Cl)cc(Cl)c2)c1[N+](=O)[O-]`, for which the caspase activation is -0.897% (inactive).

Take `C/C1=C/C(=O)O[C@@H]2C[C@@H](CC[C@H](C)/C=C\CC1)O[C@@](O)(C1CSC(=O)N1)C2` (stereo partly specified): the caspase activation is 2.78% (inactive).

As to `CCOCCCNc1c([N+](=O)[O-])c(=O)n(C)c2ccccc12`, the caspase activation was 1.28% (inactive).

For `O=c1oc2ccccc2c(N2CCCCC2)c1[N+](=O)[O-]`, the caspase activation is -2.6% (inactive).

On to `O=c1oc2ccccc2c(Cl)c1[N+](=O)[O-]`, for which the caspase activation is -5.93% (inactive).

In the case of `CCOC(=O)N1CCN(c2c([N+](=O)[O-])c(=O)n(C)c3ccccc23)CC1`, the caspase activation is -0.543% (inactive).

Consider `Cc1ccc(Sc2cc(=O)n(C)c3ccccc23)cc1`, for which the caspase activation was -6.4% (inactive).

With `CN1C(=O)C(C)(C)N(Cc2ccccc2)c2ccccc21`, the caspase activation was 1.13% (inactive).

In the case of `Cn1c(=O)c([N+](=O)[O-])c(Nc2ccc(Cl)cc2)c2ccccc21`, the caspase activation is -0.882% (inactive).

Turning to `Cc1ccc(Nc2c([N+](=O)[O-])c(=O)n(C)c3ccccc23)cc1`, the caspase activation is -0.435% (inactive).

Take `O=C(Oc1cccc(/C=N/Nc2nc(Nc3ccccc3)nc(N3CCOCC3)n2)c1)c1ccco1`: the caspase activation is 2.95% (inactive).

Regarding `CCSc1c([N+](=O)[O-])c(=O)oc2ccccc12`, the caspase activation is -1.44% (inactive).

For `Cc1ccc(Nc2c([N+](=O)[O-])c(=O)oc3ccccc23)cc1`, the caspase activation was 0.875% (inactive).

`Cc1ccc(Sc2c([N+](=O)[O-])c(=O)oc3ccccc23)cc1`: the caspase activation was -2.87% (inactive).

`O=[N+]([O-])c1cnc2ccccc2c1Sc1ccccc1`: the caspase activation was -1.68% (inactive).

Consider `O=c1oc2ccccc2c(Sc2ccccc2)c1[N+](=O)[O-]`, for which the caspase activation was -6.2% (inactive).

A further test concerns MEF Flag-A1-IRES-BIM, caspase-Glo luminescence, 3 h. The description is as above.
Conditions: not given
On to `Cc1ccc(Sc2c([N+](=O)[O-])c(=O)n(C)c3ccccc23)cc1`, for which the AC10 was 5.09 µM.

As to `Cn1c(=O)c([N+](=O)[O-])c(Cl)c2ccccc21`, the AC10 was 1.11 µM.

As for `Cn1c(=O)c([N+](=O)[O-])c(Oc2ccccc2)c2ccccc21`, the AC10 is > 35 µM (inactive).

As to `Cc1ccc(Sc2c([N+](=O)[O-])cnc3ccccc23)cc1`, the AC10 was > 16 µM (inactive).

Regarding `Cn1c(=O)c([N+](=O)[O-])c(-n2cnc3ccccc32)c2ccccc21`, the AC10 is 15.1 µM.
